Experimental data published in US4569926A, “Stimulation of phagocytosis with somatostatin” (Brigham and Women's Hospital, priority 1983, dated 1986).

Key:
[1] = test system: Kupffer cells and RES; test: colloidal carbon clearance from the blood (phagocytic index K); type: in vivo, rat; settings: for clearing potency order by change in K caused by 100 μg of treatment (ΔK/100 μg): crude comparison, rank order
Experimental: (§1) All of the experiments were performed in female Spraque-Dawley rats (ESS Laboratories, Lynnfield, Mass.) with an initial body weight of 150-180 g, and with unlimited access to Purina laboratory chow and tap water. Control and experimental groups consisted of 3-4 rats. Each experiment was repeated at least twice and the results were pooled. Linear or cyclic somatostatin (Serono) was injected under mild ether anesthesia at 10, 50, 100 or 250 μg in 0.5 ml of saline into the jugular vein once daily for 4 consecutive days in the dose-response study (FIG. 1). Control animals were injected with the same amount of saline. In the time-response study, 0, 1, 2, 3 or 4 daily doses of somatostatin, 50 μg, were injected i.v. (FIG. 2). In the comparative experiments, somatostatin, 250 μg, i.v., was given as in the first study, and standard doses of zymosan (Sigma 2,500 μg/100 g i.v.; twice, 48 and 24 hr before colloidal carbon) and the reticuloendothelial system (RES) blocker gadolinium chloride (Sigma; 500 μg/100 g i.v.; once, 24 hour prior to india ink) were administered to additional groups of rats (FIG. 3). In all of the experiments, 0.1 ml/100 g of the supernatant of centrifuged (3000 rpm/15 min) colloidal carbon (Wagner's india ink) was injected i.v. under mild ether anesthesia. Blood samples (50 μl ) were obtained with heparinized glass capillaries and by puncture of the retro-orbital venous plexus at 3, 6, 12 and 24 minutes after the administration of carbon. The blood samples were lysed in 2 ml of 0.1% Na2 CO3 solution. After 24 minutes, the rats were killed, and the livers were perfused through the portal vein with 20 ml saline to remove trapped blood. Samples of liver, spleen, lung and kidney were fixed in 10% formalin and subsequently processed for light microscopy. A piece of liver was digested in concentrated mineral acid, and, following organic extraction, the concentration of carbon, as in blood hemolysates, was measured spectrophotometrically at 660 nm using the method of Takahashi and Matsuoka (J. Toxicol. Sci., S., 1 (1980).
The phagocytic index or K value was calculated as described by others (Takahashi and Matsuoka, ibid; Biozzi et al, J. Exp. Pathol., 34, 441 (1953)) to indicate the carbon clearance for the blood. Since it was evident that the effect of treatment was maximal on carbon clearance during the first 6 or 12 minutes, K values were obtained only for this time interval. For statistical evaluation, Student's two-tailed t-test was used.

[2] = test system: Kupffer cells and RES; test: hepatic uptake of colloidal carbon; type: in vivo, rat; settings: zymosan 2,500 μg/100 g i.v. twice, 48 and 24 hr before carbon; GdCl3 500 μg/100 g i.v. once, 24 hour before (FIG. 3)
Experimental: as §1, with “In all of the experiments, 0.1 ml/100 g of the supernatant of centrifuged (3000 rpm/15 min) colloidal carbon (Wagner's india ink) was injected i.v. under mild ether anesthesia. Blood samples (50 μl ) were obtained with heparinized glass capillaries and by puncture of the retro-orbital venous plexus at 3, 6, 12 and 24 minutes after the administration of carbon. The blood samples were lysed in 2 ml of 0.1% Na2 CO3 solution. After 24 minutes, the rats were killed, and the livers were perfused through the portal vein with 20 ml saline to remove trapped blood. Samples of liver, spleen, lung and kidney were fixed in 10% formalin and subsequently processed for light microscopy.” left out

[3] = test system: Kupffer cells; test: light microscopic examination of liver sections for carbon particles; type: in vivo, rat; settings: periportal areas, 24 minutes after carbon
Experimental: as §1, with “In all of the experiments, 0.1 ml/100 g of the supernatant of centrifuged (3000 rpm/15 min) colloidal carbon (Wagner's india ink) was injected i.v. under mild ether anesthesia. Blood samples (50 μl ) were obtained with heparinized glass capillaries and by puncture of the retro-orbital venous plexus at 3, 6, 12 and 24 minutes after the administration of carbon. The blood samples were lysed in 2 ml of 0.1% Na2 CO3 solution. After 24 minutes, the rats were killed, and the livers were perfused through the portal vein with 20 ml saline to remove trapped blood. Samples of liver, spleen, lung and kidney were fixed in 10% formalin and subsequently processed for light microscopy.” left out

[4] = pretreatment with exogenous somatostatin; cited from earlier work
[5] = in vivo; cited from earlier work
[6] = in vivo; cited from earlier work; remark: listed apart in the source

Compound | clearing potency order by change in K caused by 100 μg of treatment (ΔK/100 μg) [1] | carbon clearance from the blood, comparative experiment ([1]; zymosan 2,500 μg/100 g i.v. twice, 48 and 24 hr before carbon, GdCl3 500 μg/100 g i.v. once, 24 hour before (FIG. 3)) | uptake of the carbon to the liver, comparative experiment [2] | colloidal carbon clearance from the blood, dose-response ([1]; 10 μg i.v. once daily for 4 days (FIG. 1)) | colloidal carbon clearance from the blood, dose-response ([1]; doses of 50, 100 or 250 μg i.v. once daily for 4 days (FIG. 1)) | colloidal carbon clearance from the blood ([1]; female Sprague-Dawley rats, somatostatin i.v. once daily for 4 days vs saline, effect most dramatic during first 6-12 minutes (FIG. 1)) | phagocytic index or K value ([1]; time-response study, 50 μg i.v., three or four doses (one per day) (FIG. 2)) | carbon deposition in liver macrophages (light microscopy) [3] | cysteamine-induced duodenal ulcer [4] | gastric acid output [4] | effect on experimentally induced pancreatitis [5] | effect on adrenal and lung lesions [6]
[Cl][Gd]([Cl])[Cl] [GdCl3, gadolinium chloride] | somatostatin >zymosan >GdCl3 | inhibited | inhibited | – | – | – | – | – | – | – | – | –
somatostatin | somatostatin >zymosan >GdCl3 | – | – | less effective than the other doses | very similar results | markedly accelerated | significantly enhanced | caused numerous macrophages to take up carbons | prevents | minimal inhibition | beneficial effect | beneficial effect
